Measurements: ChEMBL document CHEMBL4507266, “Data for DCP probe BAY-784” (2021)

Tests used:
[1] = molecular target: Sodium-dependent noradrenaline transporter (Homo sapiens) (UniProt P23975); settings: Compound concentration 10.0 uM
[2] = molecular target: Monoamine oxidase A (MAO-A) (Homo sapiens, UniProt P21397); experiment: Inhibition of Monoamine Oxidase MAO-A at compound concentration of 10.0 uM in the Eurofins-Panlabs enzyme assay (Eurofins_assay_140010); design: substrate with concentration 50 uM Kynuramine, incubation time 60 min, incubation temperature 37 C; settings: recombinant human MAO-A expressed in insect Hi5 cells, probe Kynuramine, 50 uM, compound concentration 10 uM
[3] = molecular target: Epidermal growth factor receptor (Homo sapiens) (UniProt P00533); experiment: Inhibition of Protein Tyrosine Kinase, EGF Receptor at 10 µM in the Eurofins-Panlabs enzyme assay (Eurofins_assay_170020); design: substrate with concentration; settings: Compound concentration […]
Sequence of Epidermal growth factor receptor (Homo sapiens) (P00533 whole entry): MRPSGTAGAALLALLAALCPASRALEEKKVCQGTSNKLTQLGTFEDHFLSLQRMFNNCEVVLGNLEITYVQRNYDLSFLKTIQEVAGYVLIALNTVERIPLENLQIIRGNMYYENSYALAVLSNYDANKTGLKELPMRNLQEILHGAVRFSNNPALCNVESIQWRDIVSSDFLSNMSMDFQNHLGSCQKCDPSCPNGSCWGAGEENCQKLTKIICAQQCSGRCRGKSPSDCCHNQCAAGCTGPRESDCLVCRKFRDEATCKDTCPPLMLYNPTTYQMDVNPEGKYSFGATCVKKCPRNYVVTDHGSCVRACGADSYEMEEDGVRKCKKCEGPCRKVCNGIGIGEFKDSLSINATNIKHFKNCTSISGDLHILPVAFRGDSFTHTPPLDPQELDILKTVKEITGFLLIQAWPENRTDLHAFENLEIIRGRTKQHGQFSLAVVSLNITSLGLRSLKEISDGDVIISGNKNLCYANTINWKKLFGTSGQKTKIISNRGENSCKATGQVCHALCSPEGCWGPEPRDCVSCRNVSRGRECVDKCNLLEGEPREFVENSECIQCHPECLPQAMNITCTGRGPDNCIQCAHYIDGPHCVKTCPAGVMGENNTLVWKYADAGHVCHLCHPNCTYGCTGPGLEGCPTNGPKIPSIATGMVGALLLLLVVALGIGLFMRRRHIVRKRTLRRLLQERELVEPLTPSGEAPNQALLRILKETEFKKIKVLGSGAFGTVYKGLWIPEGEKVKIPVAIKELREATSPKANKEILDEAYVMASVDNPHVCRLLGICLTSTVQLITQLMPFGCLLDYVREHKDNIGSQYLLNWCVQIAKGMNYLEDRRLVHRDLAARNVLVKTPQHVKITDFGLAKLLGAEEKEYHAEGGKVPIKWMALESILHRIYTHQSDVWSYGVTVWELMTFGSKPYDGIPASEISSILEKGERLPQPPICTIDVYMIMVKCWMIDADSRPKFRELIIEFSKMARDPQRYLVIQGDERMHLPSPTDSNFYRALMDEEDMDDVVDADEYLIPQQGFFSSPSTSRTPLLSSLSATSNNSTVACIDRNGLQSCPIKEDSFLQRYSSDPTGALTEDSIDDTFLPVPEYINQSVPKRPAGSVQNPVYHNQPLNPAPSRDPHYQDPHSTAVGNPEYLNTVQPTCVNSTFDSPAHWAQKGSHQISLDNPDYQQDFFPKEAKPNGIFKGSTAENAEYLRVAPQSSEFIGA

[4] = molecular target: L-type calcium channel, benzothiazepine site (Cav1.2 alpha-1C) (Homo sapiens, UniProt Q13936); experiment: Inhibition of Calcium Channel L-Type, Benzothiazepine at 10 µM in the Eurofins-Panlabs radioligand binding assay (Eurofins_assay_214510); design: ligand concentration 2 nM, non-specific ligand with concentration 10 µM Diltiazem, incubation time 3h, incubation temperature 4 °C; settings: male, Wistar, rat, rat whole brain preparation, probe [3H] Diltiazem, 2 nM; compound concentration 10 uM; target entry is the homologue from another species
[5] = molecular target: Cholecystokinin receptor type A (Homo sapiens) (UniProt P32238); experiment: Inhibition of Cholecystokinin CCK1 (CCKA) at 10 µM in the Eurofins-Panlabs radioligand binding assay (Eurofins_assay_218020); settings: Compound concentration 10.0 uM
CYP3A4 = CYP3A4 (Homo sapiens, UniProt P08684); experiment: CYP450, 3A4 Eurofins-Panlabs enzyme assay; settings: compound concentration 10 uM
Sequence of CYP3A4 (P08684 whole entry): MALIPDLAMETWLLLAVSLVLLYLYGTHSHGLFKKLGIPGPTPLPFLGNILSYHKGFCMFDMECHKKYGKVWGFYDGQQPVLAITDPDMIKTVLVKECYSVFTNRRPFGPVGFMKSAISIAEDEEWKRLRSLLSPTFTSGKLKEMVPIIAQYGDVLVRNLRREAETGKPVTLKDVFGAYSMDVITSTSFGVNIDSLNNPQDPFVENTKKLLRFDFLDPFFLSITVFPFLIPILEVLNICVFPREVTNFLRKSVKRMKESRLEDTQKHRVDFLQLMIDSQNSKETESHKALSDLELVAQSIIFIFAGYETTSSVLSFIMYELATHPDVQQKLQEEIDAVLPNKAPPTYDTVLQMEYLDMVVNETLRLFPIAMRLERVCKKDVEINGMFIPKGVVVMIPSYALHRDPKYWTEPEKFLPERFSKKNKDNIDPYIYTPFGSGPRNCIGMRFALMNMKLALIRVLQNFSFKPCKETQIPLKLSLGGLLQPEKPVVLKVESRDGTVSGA

[6] = molecular target: T1, GABA-A receptor; anion channel (Rattus norvegicus) (UniProt O09028+P15431+P18506+P18508+P19969+P20236+P23574+P23576+P28471+P28473+P30191+P62813+P63079+P63138+Q91ZM7+Q9ES14); settings: Compound concentration 10.0 uM
CYP2C19 = CYP2C19 (Homo sapiens, UniProt P33261); experiment: CYP450, 2C19 Eurofins-Panlabs enzyme assay; settings: compound concentration 10 uM
Homo sapiens [7] = species: Homo sapiens; experiment: Inhibition of Tumor Necrosis Factor (TNF), Non-Selective at 10 µM in the Eurofins-Panlabs radioligand binding assay (Eurofins_assay_286510); settings: Compound concentration 10.0 uM
[8] = molecular target: Histamine H2 receptor (Homo sapiens) (UniProt P25021); settings: Compound concentration 10.0 uM
Sequence of Histamine H2 receptor (Homo sapiens) (P25021 whole entry): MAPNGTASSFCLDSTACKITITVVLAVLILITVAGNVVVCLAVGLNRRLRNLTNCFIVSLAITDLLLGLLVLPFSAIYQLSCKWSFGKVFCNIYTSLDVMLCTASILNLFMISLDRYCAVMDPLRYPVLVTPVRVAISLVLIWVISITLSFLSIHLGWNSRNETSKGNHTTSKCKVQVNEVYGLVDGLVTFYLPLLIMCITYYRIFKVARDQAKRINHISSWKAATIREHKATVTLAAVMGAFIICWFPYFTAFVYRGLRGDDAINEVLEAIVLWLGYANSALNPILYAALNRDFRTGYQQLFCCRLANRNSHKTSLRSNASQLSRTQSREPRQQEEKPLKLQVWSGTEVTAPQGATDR

[9] = molecular target: T2, 5-hydroxytryptamine receptor 2C (Homo sapiens) (UniProt P28335); settings: Compound concentration 10.0 uM
T2 sequence (whole entry): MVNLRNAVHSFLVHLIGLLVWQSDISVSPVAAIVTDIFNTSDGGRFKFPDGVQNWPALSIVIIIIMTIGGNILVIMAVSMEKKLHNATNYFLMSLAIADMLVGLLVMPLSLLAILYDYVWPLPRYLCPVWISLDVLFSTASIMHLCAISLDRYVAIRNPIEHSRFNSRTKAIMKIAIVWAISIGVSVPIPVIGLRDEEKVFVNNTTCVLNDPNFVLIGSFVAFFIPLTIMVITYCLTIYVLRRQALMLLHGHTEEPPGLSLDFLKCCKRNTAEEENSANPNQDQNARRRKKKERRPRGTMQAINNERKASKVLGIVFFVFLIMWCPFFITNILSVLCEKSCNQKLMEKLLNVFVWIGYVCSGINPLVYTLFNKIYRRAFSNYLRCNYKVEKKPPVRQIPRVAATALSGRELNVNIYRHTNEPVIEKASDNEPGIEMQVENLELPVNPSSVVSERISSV

[10] = molecular target: C-C chemokine receptor type 5 (Homo sapiens) (UniProt P51681); experiment: Inhibition of Chemokine CCR5 at 10 µM in the Eurofins-Panlabs radioligand binding assay (Eurofins_assay_217720); settings: Compound concentration 10.0 uM
Sequence of C-C chemokine receptor type 5 (Homo sapiens) (P51681 whole entry, looked up): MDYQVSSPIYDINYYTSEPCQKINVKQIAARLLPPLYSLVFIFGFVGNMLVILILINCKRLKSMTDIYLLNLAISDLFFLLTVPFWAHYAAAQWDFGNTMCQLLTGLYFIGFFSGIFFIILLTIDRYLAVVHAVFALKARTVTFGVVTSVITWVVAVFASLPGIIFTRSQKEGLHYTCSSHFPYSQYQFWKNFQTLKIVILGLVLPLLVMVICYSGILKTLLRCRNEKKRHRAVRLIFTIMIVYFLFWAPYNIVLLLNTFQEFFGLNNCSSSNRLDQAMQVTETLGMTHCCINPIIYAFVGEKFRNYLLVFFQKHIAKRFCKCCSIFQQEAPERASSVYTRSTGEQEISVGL

[11] = molecular target: Insulin receptor (Homo sapiens) (UniProt P06213); settings: Rattus norvegicus; Compound concentration 10.0 uM
Sequence of Insulin receptor (Homo sapiens) (P06213 28-758 limits assumed): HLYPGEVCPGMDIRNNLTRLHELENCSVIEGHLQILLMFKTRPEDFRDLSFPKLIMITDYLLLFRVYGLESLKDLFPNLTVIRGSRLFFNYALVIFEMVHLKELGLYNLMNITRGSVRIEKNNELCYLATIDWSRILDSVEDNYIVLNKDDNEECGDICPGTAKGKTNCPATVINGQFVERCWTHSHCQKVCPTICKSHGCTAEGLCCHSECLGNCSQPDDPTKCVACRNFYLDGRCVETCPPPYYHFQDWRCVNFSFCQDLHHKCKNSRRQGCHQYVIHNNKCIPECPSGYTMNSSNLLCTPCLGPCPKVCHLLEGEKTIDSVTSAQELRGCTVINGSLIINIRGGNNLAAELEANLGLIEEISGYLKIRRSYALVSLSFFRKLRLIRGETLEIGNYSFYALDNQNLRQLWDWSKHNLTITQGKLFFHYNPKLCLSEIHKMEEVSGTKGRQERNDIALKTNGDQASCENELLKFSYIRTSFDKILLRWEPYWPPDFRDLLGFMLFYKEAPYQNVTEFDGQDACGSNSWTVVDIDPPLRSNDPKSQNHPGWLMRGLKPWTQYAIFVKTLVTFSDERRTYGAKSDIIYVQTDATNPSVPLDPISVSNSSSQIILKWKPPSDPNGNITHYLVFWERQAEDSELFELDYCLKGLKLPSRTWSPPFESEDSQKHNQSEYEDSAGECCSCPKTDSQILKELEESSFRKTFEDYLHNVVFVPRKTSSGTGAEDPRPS
Sequence of Insulin receptor (Homo sapiens) (P06213 763-1382 limits assumed): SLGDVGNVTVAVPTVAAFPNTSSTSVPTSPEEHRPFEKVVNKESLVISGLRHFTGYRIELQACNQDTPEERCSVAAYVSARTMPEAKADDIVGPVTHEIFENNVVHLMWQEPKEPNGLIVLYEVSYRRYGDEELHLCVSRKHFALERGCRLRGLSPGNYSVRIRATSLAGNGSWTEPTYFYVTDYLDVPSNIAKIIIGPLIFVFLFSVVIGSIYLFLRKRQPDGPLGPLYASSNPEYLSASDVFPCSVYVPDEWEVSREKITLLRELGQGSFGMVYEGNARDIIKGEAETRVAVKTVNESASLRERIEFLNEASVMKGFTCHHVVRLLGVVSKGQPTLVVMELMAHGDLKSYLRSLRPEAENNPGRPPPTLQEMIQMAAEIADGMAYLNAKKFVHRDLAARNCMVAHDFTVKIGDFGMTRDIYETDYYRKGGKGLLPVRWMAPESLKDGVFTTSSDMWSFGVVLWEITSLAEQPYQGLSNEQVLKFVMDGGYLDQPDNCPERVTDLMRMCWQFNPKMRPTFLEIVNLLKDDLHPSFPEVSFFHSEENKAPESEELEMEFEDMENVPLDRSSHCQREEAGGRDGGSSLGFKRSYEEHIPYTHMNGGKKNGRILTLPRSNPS

Homo sapiens [12] = species: Homo sapiens; experiment: Inhibition of Phosphodiesterase PDE4 at compound concentration of 10.0 uM in the Eurofins-Panlabs enzyme assay (Eurofins_assay_154000); assay type: protein assay; design: substrate with concentration 1.01 uM [3 H]cAMP + cAMP, incubation time 20 min, incubation temperature 25 C; settings: Compound concentration 10.0 uM
[13] = molecular target: Neutrophil elastase (Homo sapiens) (UniProt P08246); experiment: Inhibition of Peptidase, ELA2 (Neutrophil Elastase 2) at 10 µM in the Eurofins-Panlabs enzyme assay (Eurofins_assay_166010); settings: Compound concentration 10.0 uM
Sequence of Neutrophil elastase (Homo sapiens) (P08246 whole entry): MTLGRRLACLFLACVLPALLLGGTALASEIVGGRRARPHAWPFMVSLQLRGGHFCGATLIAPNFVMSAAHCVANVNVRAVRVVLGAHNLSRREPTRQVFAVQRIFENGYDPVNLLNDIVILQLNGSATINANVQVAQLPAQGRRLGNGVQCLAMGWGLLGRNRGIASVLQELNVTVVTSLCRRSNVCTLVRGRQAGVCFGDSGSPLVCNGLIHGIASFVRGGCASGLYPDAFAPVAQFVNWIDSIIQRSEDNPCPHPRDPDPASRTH

[14] = molecular target: cGMP-specific 3',5'-cyclic phosphodiesterase (Homo sapiens) (UniProt O76074); settings: Compound concentration 10.0 uM
[15] = molecular target: Substance-K receptor (Homo sapiens) (UniProt P21452); experiment: Inhibition of Tachykinin NK2 at 10 µM in the Eurofins-Panlabs radioligand binding assay (Eurofins_assay_255600); design: ligand concentration 0.5 nM; settings: Compound concentration 10.0 uM
Sequence of Substance-K receptor (Homo sapiens) (P21452 whole entry): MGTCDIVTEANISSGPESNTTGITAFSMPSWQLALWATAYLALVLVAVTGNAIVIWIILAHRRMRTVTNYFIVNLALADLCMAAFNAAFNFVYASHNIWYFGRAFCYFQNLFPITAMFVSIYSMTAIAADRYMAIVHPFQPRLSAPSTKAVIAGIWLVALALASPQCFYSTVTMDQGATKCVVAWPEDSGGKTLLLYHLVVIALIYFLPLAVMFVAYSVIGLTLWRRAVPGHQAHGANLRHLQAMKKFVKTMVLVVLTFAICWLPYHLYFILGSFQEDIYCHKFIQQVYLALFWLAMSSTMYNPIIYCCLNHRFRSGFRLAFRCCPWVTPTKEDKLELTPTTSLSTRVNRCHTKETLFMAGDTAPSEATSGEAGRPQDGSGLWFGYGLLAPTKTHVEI

[16] = molecular target: Platelet-activating factor receptor (Homo sapiens) (UniProt P25105); experiment: Inhibition of Platelet Activating Factor (PAF) at 10 µM in the Eurofins-Panlabs radioligand binding assay (Eurofins_assay_265010); settings: Compound concentration 10.0 uM
[17] = molecular target: Neutrophil elastase (Homo sapiens) (UniProt P08246); experiment: Peptidase, ELA2 (Neutrophil Elastase 2) Eurofins-Panlabs enzyme assay; settings: Compound concentration 30.0 uM
[18] = molecular target: Beta-2 adrenergic receptor (Homo sapiens) (UniProt P07550); settings: Compound concentration 10.0 uM
[19] = molecular target: Endothelin-1 receptor (Homo sapiens) (UniProt P25101); settings: Compound concentration 10.0 uM
[20] = molecular target: T1, GABA-A receptor; anion channel (Rattus norvegicus); settings: Compound concentration 10.0 uM; remark: listed apart in the source
[21] = molecular target: D(2) dopamine receptor (Homo sapiens) (UniProt P14416); settings: Compound concentration 10.0 uM
[22] = molecular target: Gonadotropin-releasing hormone receptor (Homo sapiens, UniProt P30968); experiment: Mechanistic assay measuring cellular IP1; assay type: functional
Sequence of Gonadotropin-releasing hormone receptor (P30968 whole entry): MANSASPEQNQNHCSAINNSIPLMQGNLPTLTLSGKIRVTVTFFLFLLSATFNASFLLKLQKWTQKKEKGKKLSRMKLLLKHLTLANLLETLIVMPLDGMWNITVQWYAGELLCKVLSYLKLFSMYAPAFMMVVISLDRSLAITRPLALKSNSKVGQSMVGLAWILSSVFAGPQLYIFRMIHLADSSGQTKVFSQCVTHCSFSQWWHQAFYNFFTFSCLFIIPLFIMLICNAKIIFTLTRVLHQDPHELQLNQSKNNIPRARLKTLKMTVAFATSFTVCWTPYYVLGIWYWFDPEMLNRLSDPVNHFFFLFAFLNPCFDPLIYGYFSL

Which inhibition [1] does the source give for O=C(NCc1ncc(C(F)(F)F)cc1Cl)c1ccc2c(c1)C1(CCS(=O)(=O)CC1)[C@H](C1CC1)N2S(=O)(=O)c1ccc(F)cc1 [BAY-784] here?
Its inhibition is 14%.

And the inhibition at 60 min, 10 µM [2]?
The inhibition at 60 min, 10 µM was 3% (not active).

And the inhibition [3]?
The inhibition was -8%.

What about the inhibition at 3 h, 10 µM [4] of the same compound?
The inhibition at 3 h, 10 µM was 29% (not active).

What about the inhibition [5] of the same compound?
The inhibition was -3%.

What about the inhibition at 10 µM (CYP3A4) of the same compound?
Its inhibition at 10 µM is 38% (not active).

What about the inhibition [6] of the same compound?
The inhibition was -1%.

And the inhibition at 10 µM (CYP2C19)?
The inhibition at 10 µM was 36% (not active).

And the inhibition (Homo sapiens [7])?
The inhibition was 22%.

And the inhibition [8]?
Its inhibition is 1%.

What about the inhibition [9] of the same compound?
Its inhibition is 9%.

And the inhibition [10]?
The inhibition was -1%.

What about the inhibition [11] of the same compound?
The inhibition was -1%.

And the inhibition (Homo sapiens [12])?
Its inhibition is 2%.

What about the inhibition [13] of the same compound?
Its inhibition is 0%.

What about the inhibition [14] of the same compound?
The inhibition was -5%.

And the inhibition [15]?
Its inhibition is 7%.

What about the inhibition [16] of the same compound?
Its inhibition is 6%.

And the inhibition [17]?
The inhibition was 4%.

And the inhibition [18]?
The inhibition was -4%.

And the inhibition [19]?
Its inhibition is 16%.

What about the inhibition [20] of the same compound?
The inhibition was -9.68%.

Which results are given for O=C(NCc1ncc(C(F)(F)F)cc1Cl)c1ccc2c(c1)C1(CCS(=O)(=O)CC1)[C@@H](C1CC1)N2S(=O)(=O)c1ccc(F)cc1 [BAY-786]?
inhibition [21]: -8.4%; IC50 [22]: 2.4 µM (not active)
